Measurements published in patent publication US11447466B2, “Substituted indole compounds useful as inhibitors of TLR7/8/9” (BRISTOL-MYERS SQUIBB COMPANY, priority 2017, dated 2022).

Tests used:
Type in all cases: cell-based
human TLR7 = target: T1, human TLR7 (Homo sapiens, UniProt Q9NYK1); test: TLR7 inhibition reporter assay (HEK-Blue SEAP reporter, gardiquimod stimulation); settings: HEK-Blue cells overexpressing human TLR7, SEAP reporter, gardiquimod 7.5 μM, 22 hour incubation
T1 construct: host or cells: HEK-Blue cells
T1 sequence (Q9NYK1 27-1049): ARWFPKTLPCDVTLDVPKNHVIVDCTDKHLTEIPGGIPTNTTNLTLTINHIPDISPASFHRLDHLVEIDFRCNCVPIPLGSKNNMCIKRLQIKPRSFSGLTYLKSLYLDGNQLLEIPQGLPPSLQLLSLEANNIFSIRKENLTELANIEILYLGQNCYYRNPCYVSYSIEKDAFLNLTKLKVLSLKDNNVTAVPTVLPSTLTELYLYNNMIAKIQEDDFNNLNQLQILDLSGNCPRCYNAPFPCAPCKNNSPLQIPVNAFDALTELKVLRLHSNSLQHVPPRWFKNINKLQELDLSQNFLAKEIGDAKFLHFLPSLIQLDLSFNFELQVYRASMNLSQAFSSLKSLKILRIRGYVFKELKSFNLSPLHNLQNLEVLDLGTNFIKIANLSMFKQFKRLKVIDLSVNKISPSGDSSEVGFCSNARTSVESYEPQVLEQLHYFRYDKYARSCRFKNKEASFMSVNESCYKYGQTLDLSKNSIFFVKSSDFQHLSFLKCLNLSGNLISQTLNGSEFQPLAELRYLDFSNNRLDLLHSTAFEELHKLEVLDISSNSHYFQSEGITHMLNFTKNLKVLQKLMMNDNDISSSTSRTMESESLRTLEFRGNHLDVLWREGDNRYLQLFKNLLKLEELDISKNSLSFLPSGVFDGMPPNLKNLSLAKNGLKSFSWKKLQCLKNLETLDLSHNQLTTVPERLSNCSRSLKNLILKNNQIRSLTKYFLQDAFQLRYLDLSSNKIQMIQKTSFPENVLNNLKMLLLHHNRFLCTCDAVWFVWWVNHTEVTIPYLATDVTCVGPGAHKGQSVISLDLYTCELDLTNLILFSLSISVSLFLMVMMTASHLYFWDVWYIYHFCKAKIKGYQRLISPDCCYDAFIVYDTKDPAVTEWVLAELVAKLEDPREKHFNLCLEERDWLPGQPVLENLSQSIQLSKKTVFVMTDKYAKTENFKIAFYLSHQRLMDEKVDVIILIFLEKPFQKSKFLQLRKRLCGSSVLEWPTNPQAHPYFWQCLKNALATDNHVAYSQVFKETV
How it was run: (§1)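 Dose–response from 0.05 nM to 50 μM was run in HEK-Blue human TLR7, TLR8 and TLR9 reporter cells. After 30 min at room temperature with compound, ligand was added (TLR7 gardiquimod 7.5 μM; TLR8 R848 15.9 μM; TLR9 ODN2006 5 nM) and SEAP measured next day, at 22 h.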

human TLR8 = target: T2, human TLR8 (Homo sapiens, UniProt Q9NR97); test: TLR8 inhibition reporter assay (HEK-Blue SEAP reporter, R848 stimulation); settings: HEK-Blue cells overexpressing human TLR8, SEAP reporter, R848 15.9 μM, 22 hour incubation
T2 construct: host or cells: HEK-Blue cells
T2 sequence (Q9NR97 27-1041): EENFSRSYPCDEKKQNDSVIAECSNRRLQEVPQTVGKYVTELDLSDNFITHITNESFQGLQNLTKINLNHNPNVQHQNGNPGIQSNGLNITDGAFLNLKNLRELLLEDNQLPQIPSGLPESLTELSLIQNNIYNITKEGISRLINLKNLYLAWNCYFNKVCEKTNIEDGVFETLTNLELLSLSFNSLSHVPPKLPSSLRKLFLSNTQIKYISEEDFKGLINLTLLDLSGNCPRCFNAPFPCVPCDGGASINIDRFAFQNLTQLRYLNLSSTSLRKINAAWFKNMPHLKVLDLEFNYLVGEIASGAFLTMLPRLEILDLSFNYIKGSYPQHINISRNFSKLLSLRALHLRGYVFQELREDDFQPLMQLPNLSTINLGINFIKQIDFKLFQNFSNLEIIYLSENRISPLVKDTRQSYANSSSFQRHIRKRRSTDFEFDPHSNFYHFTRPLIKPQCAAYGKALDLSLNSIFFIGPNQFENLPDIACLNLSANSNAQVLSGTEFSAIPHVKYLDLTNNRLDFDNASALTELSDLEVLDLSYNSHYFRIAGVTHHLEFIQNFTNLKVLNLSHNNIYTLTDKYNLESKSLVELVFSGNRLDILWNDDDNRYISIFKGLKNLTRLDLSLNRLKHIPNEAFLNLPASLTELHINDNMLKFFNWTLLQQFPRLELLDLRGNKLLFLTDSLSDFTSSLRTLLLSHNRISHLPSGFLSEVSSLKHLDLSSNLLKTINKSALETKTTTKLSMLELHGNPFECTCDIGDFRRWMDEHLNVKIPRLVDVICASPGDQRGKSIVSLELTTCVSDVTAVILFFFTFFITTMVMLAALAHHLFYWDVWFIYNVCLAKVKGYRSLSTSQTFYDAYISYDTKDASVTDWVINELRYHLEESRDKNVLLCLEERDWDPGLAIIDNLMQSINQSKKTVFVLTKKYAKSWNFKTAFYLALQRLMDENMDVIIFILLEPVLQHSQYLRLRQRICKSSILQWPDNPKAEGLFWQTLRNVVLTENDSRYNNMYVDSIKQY
How it was run: as §1

human TLR9 = target: T3, human TLR9 (Homo sapiens, UniProt Q9NR96); test: TLR9 inhibition reporter assay (HEK-Blue SEAP reporter, ODN2006 stimulation); settings: HEK-Blue cells overexpressing human TLR9, SEAP reporter, ODN2006 5 nM, 22 hour incubation
T3 construct: host or cells: HEK-Blue cells
T3 sequence (Q9NR96 26-1032): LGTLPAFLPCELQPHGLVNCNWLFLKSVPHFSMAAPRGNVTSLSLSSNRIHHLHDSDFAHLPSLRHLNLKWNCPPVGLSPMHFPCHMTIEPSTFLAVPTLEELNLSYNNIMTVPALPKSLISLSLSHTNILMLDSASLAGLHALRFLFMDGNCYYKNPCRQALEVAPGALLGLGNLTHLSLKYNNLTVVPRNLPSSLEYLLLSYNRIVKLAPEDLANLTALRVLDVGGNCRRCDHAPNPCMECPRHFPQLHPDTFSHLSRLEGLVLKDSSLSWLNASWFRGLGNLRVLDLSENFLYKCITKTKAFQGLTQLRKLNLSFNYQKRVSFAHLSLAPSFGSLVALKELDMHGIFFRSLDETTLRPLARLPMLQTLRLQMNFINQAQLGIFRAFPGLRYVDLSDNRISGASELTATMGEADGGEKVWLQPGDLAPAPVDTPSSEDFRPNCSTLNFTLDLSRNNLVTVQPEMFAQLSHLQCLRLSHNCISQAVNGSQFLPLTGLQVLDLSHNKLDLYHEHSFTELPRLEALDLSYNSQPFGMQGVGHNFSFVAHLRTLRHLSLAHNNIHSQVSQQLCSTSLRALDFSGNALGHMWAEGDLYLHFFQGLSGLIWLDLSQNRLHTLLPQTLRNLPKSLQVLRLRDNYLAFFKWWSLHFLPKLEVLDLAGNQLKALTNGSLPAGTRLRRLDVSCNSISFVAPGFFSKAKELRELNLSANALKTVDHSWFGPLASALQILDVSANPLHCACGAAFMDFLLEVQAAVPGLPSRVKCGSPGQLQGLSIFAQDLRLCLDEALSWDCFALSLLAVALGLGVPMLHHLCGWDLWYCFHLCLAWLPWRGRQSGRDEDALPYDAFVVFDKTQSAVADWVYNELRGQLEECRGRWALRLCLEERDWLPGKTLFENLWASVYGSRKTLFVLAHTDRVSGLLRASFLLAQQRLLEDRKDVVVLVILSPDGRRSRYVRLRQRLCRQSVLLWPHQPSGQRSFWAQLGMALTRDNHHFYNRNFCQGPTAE
How it was run: as §1

| SMILES | IC50 (human TLR7) [nM] | IC50 (human TLR8) [nM] | IC50 (human TLR9) [µM] |
| --- | --- | --- | --- |
| Cc1cc(-c2[nH]c3ccc(C4CCN(C(=O)C[C@H](C)O)CC4)cc3c2C(C)C)cn(C)c1=O [Example 305, (S)-5-(5-(1-(3-hydroxybutanoyl)piperidin-4-yl)-3-isopropyl-1H-indol-2-yl)-1,3-dimethylpyridin-2(1H)-one] | 11 | 97.5 | ≥ 50 |
| Cc1cc(-c2[nH]c3ccc(C4CCN(C(=O)C[C@H]5CCCN5)CC4)cc3c2C(C)C)cn(C)c1=O [Example 306, (R)-5-(3-isopropyl-5-(1-(2-(pyrrolidin-2-yl)acetyl)piperidin-4-yl)-1H-indol-2-yl)-1,3-dimethylpyridin-2(1H)-one] | 16.5 | 26.9 | 0.547 |
| Cc1c(-c2[nH]c3ccc(C4CCN(CC(C)(C)O)CC4)cc3c2C(C)C)cn(C)c(=O)c1Cl [Example 309, 3-chloro-5-(5-(1-(2-hydroxy-2-methylpropyl)piperidin-4-yl)-3-isopropyl-1H-indol-2-yl)-1,4-dimethylpyridin-2(1H)-one] | 13.7 | 5.3 | 8.51 |
| Cc1cc(-c2[nH]c3ccc(C4CCN(CC(C)(C)O)CC4)cc3c2C(C)C)nn(C)c1=O [Example 311, 6-(5-(1-(2-hydroxy-2-methylpropyl)piperidin-4-yl)-3-isopropyl-1H-indol-2-yl)-2,4-dimethylpyridazin-3(2H)-one] | 17.7 | 3.9 | 3.15 |
| Cc1nc(-c2[nH]c3ccc(C4CCN(CC(C)(C)O)CC4)cc3c2C(C)C)cn(C)c1=O [Example 312, 5-(5-(1-(2-hydroxy-2-methylpropyl)piperidin-4-yl)-3-isopropyl-1H-indol-2-yl)-1,3-dimethylpyrazin-2(1H)-one] | 35.1 | 22.2 | 3.17 |
| COc1c(C)c(-c2[nH]c3ccc(C4CCN(CC(C)(C)O)CC4)cc3c2C(C)C)cn(C)c1=O [Example 317, 5-(5-(1-(2-hydroxy-2-methylpropyl)piperidin-4-yl)-3-isopropyl-1H-indol-2-yl)-3-methoxy-1,4-dimethylpyridin-2(1H)-one] | 19.3 | 7.2 | 3.58 |
| COc1cc(-c2[nH]c3ccc(C4CCN(CC(C)(C)O)CC4)cc3c2C(C)C)c(C)n(C)c1=O [Example 318, 5-(5-(1-(2-hydroxy-2-methylpropyl)piperidin-4-yl)-3-isopropyl-1H-indol-2-yl)-3-methoxy-1,6-dimethylpyridin-2(1H)-one] | 361 | 22.3 | 3.43 |

The next compounds have a lower IC50 (human TLR7) than those just listed; values first:

| IC50 (human TLR7) [nM] | IC50 (human TLR8) [nM] | IC50 (human TLR9) [µM] | SMILES |
| --- | --- | --- | --- |
| 10.2 | 1.9 | 3.09 | Cc1cc(-c2[nH]c3ccc(C4CCN(CC(C)(C)O)CC4)cc3c2C(C)C)c(C)n(C)c1=O [Example 316, 5-(5-(1-(2-hydroxy-2-methylpropyl)piperidin-4-yl)-3-isopropyl-1H-indol-2-yl)-1,3,6-trimethylpyridin-2(1H)-one] |
| 6.7 | 1.8 | 4.94 | Cc1c(-c2[nH]c3ccc(C4CCN(CC(C)(C)O)CC4)cc3c2C(C)C)cn(C)c(=O)c1C [Example 315, 5-(5-(1-(2-hydroxy-2-methylpropyl)piperidin-4-yl)-3-isopropyl-1H-indol-2-yl)-1,3,4-trimethylpyridin-2(1H)-one] |
| 5.2 | 5.1 | 10.1 | Cc1cc(-c2[nH]c3ccc(C4CCN([C@H]5COCC[C@@H]5O)CC4)cc3c2C(C)C)cn(C)c1=O [Example 314, 5-(5-(1-((3S,4S)-4-hydroxytetrahydro-2H-pyran-3-yl)piperidin-4-yl)-3-isopropyl-1H-indol-2-yl)-1,3-dimethylpyridin-2(1H)-one] |
| 4.7 | 3.1 | 8.04 | Cc1cc(-c2[nH]c3ccc(C4CCN([C@H]5CCOC[C@@H]5O)CC4)cc3c2C(C)C)cn(C)c1=O [Example 313, 5-(5-(1-((3R,4S)-3-hydroxytetrahydro-2H-pyran-4-yl)piperidin-4-yl)-3-isopropyl-1H-indol-2-yl)-1,3-dimethylpyridin-2(1H)-one] |
| 2.3 | 1.3 | 5.54 | Cc1cc(-c2[nH]c3ccc(C4CCN(CC(C)(C)O)CC4)cc3c2C(C)C)cn(C)c1=O [Example 310, 5-(5-(1-(2-hydroxy-2-methylpropyl)piperidin-4-yl)-3-isopropyl-1H-indol-2-yl)-1,3-dimethylpyridin-2(1H)-one] |
| 2 | 22.1 | 5.65 | Cc1c(-c2[nH]c3ccc(C4CCN(S(=O)(=O)CCN5CCCC5)CC4)cc3c2C(C)C)cn(C)c(=O)c1Cl [Example 308, 3-chloro-5-(3-isopropyl-5-(1-((2-(pyrrolidin-1-yl)ethyl)sulfonyl)piperidin-4-yl)-1H-indol-2-yl)-1,4-dimethylpyridin-2(1H)-one] |
